Columns and labels:
MB16-Luc cells = test: Hepatic retention of luciferase-transfected MB16 cells (MB16-Luc); assay type: in vivo, C57BL/6J mice; settings: 2 doses of 1 mg/kg/day nasogastrically; 18 h after intrasplenic injection; control 1.80 ± 0.23
Excerpt: Test of hepatic retention of luciferase-transfected MB16 cells (MB16-Luc) (see Table 1). B16M Cells were stably transfected by lipofection as described previously (Rubio N, Martinez-Villacampa M, Blanco J. Traffic to lymph nodes of PC-3 prostate tumor cells in nude mice visualized using the luciferase gene as a tumor cell marker. Lab Invest 1998; 78:1315-1325), using plasmid pRc/cytomegalovirus-luciferase, a construct containing the Photinus pyralis luciferase gene coding sequence under transcriptional control of the cytomegalovirus promoter and the neomycin resistance gene to the G418 antibiotic (Sigma Chemicals Co.). A total of 300,000 viable B16M-Luc cells were intrasplenically injected into C57BL/6J mice (10 mice per group) which had previously been nasogastrically administered 2 doses of 1 mg/kg/day of compound to be tested. One group of mice received resveratrol, the other group of mice received azaresveratrol. […] Production of light was measured using a luminometer designed to read individual samples tubes (bioorbit, LKB Wallac; Turku, Finland) after the addition of 100 μl of luciferase assay reagent to 20 μl of each liver homogenate. […] Linearity and sensitivity of light detection in liver homogenates and influence of hepatic microenvironment on luciferase activity of B16M-Luc were also evaluated as described previously (Rubio et al, 1998).

human HSC = test: Proliferation of human HSCs treated with MC-MA375; assay type: cell-based; settings: for Increase in HSC proliferation in response to MC-A375 (in words): 12.5 μM 30 min prior to MC-A375; for Proliferation of human HSC's treated with MC-MA375 (No. cells per well): 12.5 μM, 30 min before MC-MA375, 48 h, control 2550 ± 22, treatment alone 4400 ± 30
Procedure: isolation of primary human cultures of hepatic sinusoidal endothelial (HSE) hepatic stellate cells (HSCs). The primary cultures of human HSE and HSC cells were obtained by non-tumoral hepatic tissue serial profusion with collagenase and pronase solutions, followed by Nycodenz gradient and seeded on 24-well plates (0.5×10^4 cells/cm^2) in DMEM. supplemented with 10% FBS.
HSC proliferation test. Primary cultured human HSC cultures were seeded (2500 cells/well/200 μl) in DMEM with 10% FBS. Once adhered, they were washed to remove the FBS and were incubated with fresh medium in the presence or absence of 12.5 μM of the azaresveratrol compound (see Table 3). Thirty (30) minutes later, conditioned media obtained from MA375 cells were added to some wells, and the plates were incubated for 48 hours in humid incubator at 37° C. with 5% CO2. Upon completion of the incubation time, the cells were fixed and were processed for counting just as previously described hereinabove.

MB16 cells = test: MB16 hepatic metastasis test after intrasplenic injection; assay type: in vivo, C57BL/6J mice; settings: 1 mg/Kg/day nasogastrically; for Reduction of the mean density of hepatic metastases: daily, vs control animals, P<0.01; for No. portal metases/No. sinusoidal metastasis (ratio in brackets) / Percentage of focal points w/cavitation (% of total no. of metastatic focal points) / No. portal metases / No. sinusoidal metastasis / Volume of hepatic metastasis (mm^3) / Hepatic focal point density (No. focal points/100 mm^3) / Metastatic cell proliferation index (% cells positive to Ki67 antigen) / Length of angiogenic vessels (μm): day 12; for No. portal metases/No. sinusoidal metastasis (ratio in brackets): control 1; for Percentage of focal points w/cavitation (% of total no. of metastatic focal points): control 13.5 ± 5.0; for No. portal metases / No. sinusoidal metastasis: control 30; for Volume of hepatic metastasis (mm^3): control 60.0 ± 7.5; for Hepatic focal point density (No. focal points/100 mm^3): control 60.0 ± 11; for Metastatic cell proliferation index (% cells positive to Ki67 antigen): control 71.0 ± 5.0; for Length of angiogenic vessels (μm): control 175.0 ± 10
Procedure: MB16 Hepatic Metastasis Test using C57 BL/6J mice (males 6-8 weeks of age) supplied by IFFA Credo (L'Arbreole, France). The care, maintenance and experimental conditions were carried out in accordance with that which is set forth under EEC Council Directive 86/609 (OJ L 358. 1, Dec. 12, 1987) and the NIH guide for the care and use of laboratory animals (NIH publication 85-23, 1985). In the experiments with the resveratrol and azaresveratrol compounds (Table 1), the animals (10 per group) received 1 mg/Kg/day of the compounds nasogastrically every day up to the time of sacrifice. In the experiments with the JE2:2 compound (FIG. 12), one group of mice (n=10) was given an intraperitoneal injection of 0.5 mg/kg of the JE2:2 compound dissolved in 0.1 ml of PBS. The control group (n=10), was given an intraperitoneal injection of PBS. One hour later, animals were anesthetized and were intrasplenically injected with MB16 cells (3×10^5 cells/mouse). The same treatments, at the same doses, were repeated on days 2, 3, 4, 8, 9, 10 and 11 following tumor injection.
Twelve (12) days later, the livers were removed and processed for the histological study. Firstly, they were fixed in a solution of zinc (0.5 g calcium acetate, 5 g zinc acetate, 5 g zinc chloride and 1000 ml tris buffer, pH 7.4) for 24 hours. Once fixed, they were dehydrated in alcohols of increasing concentrations, and paraffin block were included. Afterward, a minimum of nine (9) cuts 10 μm in thickness were made per liver, leaving a space of 300 μm between every 3 cuts and a 1 mm space between successive groups of 3 cuts. Once the sections had been obtained, they were processed and stained with hematoxylin-eosine. On the one hand, the number, mean diameter, area and position coordinates of each metastasis were quantified by means of an integrated image analysis system (Olympus Microimage 4.0 capture kit) connected to an Olympus BX51TF microscope. With obtained data, metastatic parameters (that is to say, the number of focal points per 100 mm^3 of hepatic tissue) and metastatic volume (that is to say, the volume of liver occupied by metastatic tissue) were calculated as described by Vidal-Vanaclocha et al. [cf. Vidal-Vanaclocha, F., Amézaga, C., Asumendi, A., Kaplanski, G. & Dinarello, C. A. “Interleukin-1 receptor blockade reduces the number and size of murine B 16 melanoma hepatic metastases”, Cancer Research, 1994, vol. 54, pp. 2667-2672]. On the other hand, more cuts were made in the same blocks, and a double marking with CD31 and desmine was performed to calculate the number and length of the angiogenic vessels within the metastases and also to study metastases according to their angiogenic pattern in portal-type expansive metastases (the angiogenic vessels surround the metastases) or sinusoidal type invasive metastases (containing an internal network of angiogenic capillaries). Another parameter that was quantified is the cavitated metastasis percentage. Lastly, immunohistochemical detection of Ki67 antigen was performed to assess the number of tumor cells which proliferated per unit of tumor surface.
To this end, the MB16 cells were intrasplenically injected in C57BL/6J mice (3×10^5 viable cells per animal resuspended in endotoxin-free sterile saline solution), 12 days after which the capacity thereof of development metastasis was determined.
One group of mice (n=7) were administered an intraperitoneal injection of JE2:2 (2.5 mg/kg) 1′ hour prior to tumor cell injection, and the same dose was repeated on days 2, 3, 4, 8, 9, 10 and 11 in following thereto. The group of control mice (n=7) was administered PBS.

Row | SMILES | Hepatic retention of MB16 Luc cells (No. cells × 10^6) (MB16-Luc cells) | Increase in HSC proliferation in response to MC-A375 (in words) (human HSC) | Proliferation of human HSC's treated with MC-MA375 (No. cells per well) (human HSC) | Reduction of the mean density of hepatic metastases (MB16 cells) [%] | No. portal metases/No. sinusoidal metastasis (ratio in brackets) (MB16 cells) | Percentage of focal points w/cavitation (% of total no. of metastatic focal points) (MB16 cells) [%] | No. portal metases (MB16 cells) | No. sinusoidal metastasis (MB16 cells) | Volume of hepatic metastasis (mm^3) (MB16 cells) | Hepatic focal point density (No. focal points/100 mm^3) (MB16 cells) | Metastatic cell proliferation index (% cells positive to Ki67 antigen) (MB16 cells) [%] | Length of angiogenic vessels (μm) (MB16 cells)
1 | Oc1ccc(/N=C/c2cc(O)cc(O)c2)cc1 [azaresveratrol, 5-((E)-(4-Hydroxyphenylimino)methyl)benzene-1,3-diol] | 0.98 ± 0.24 | abrogated | 2600 ± 60 | 46 | 4.09 | 40.0 ± 10 | 22.5 | 5.5 | 24.0 ± 9.0 | 28.0 ± 10 | 35.0 ± 10 | 88.0 ± 21
2 | Oc1ccc(C=Cc2cc(O)cc(O)c2)cc1 [resveratrol, reference compound] | 1.05 ± 0.3 | abrogated | 2250 ± 100 | 50 | 3 | 41.5 ± 11 | 22.5 | 7.5 | 18.7 ± 7.5 | 30.0 ± 11 | 40.0 ± 5.0 | 88.0 ± 23
